# Reference: ChEMBL document CHEMBL1909046, “DrugMatrix in vitro pharmacology data”
# Tested on: not listed separately
# Experiment: DRUGMATRIX: Atrial Natriuretic Factor (ANF) radioligand binding (ligand: [125I] ANF (rat))
# Type: cell membranes, Cavia porcellus, Dunkin-Hartley, Adrenal gland, Membrane
# Conditions: Not Active = under 50% inhibition at 10 µM
SMILES,IC50,Ki
COc1cc([C@@H]2c3cc4c(cc3[C@@H](O[C@@H]3O[C@@H]5CO[C@@H](C)O[C@H]5[C@H](O)[C@H]3O)[C@H]3COC(=O)[C@H]23)OCO4)cc(OC)c1O [ETOPOSIDE],Not Active,Not Active
C=CCc1ccc(O)c(OC)c1 [EUGENOL],Not Active,Not Active
CC(C(=O)O)c1cccc(Oc2ccccc2)c1 (stereo not given) [FENOPROFEN],Not Active,Not Active
CC(C)(C)NC(=O)[C@H]1CC[C@H]2[C@@H]3CC[C@H]4NC(=O)C=C[C@]4(C)[C@H]3CC[C@]12C [FINASTERIDE],Not Active,Not Active
COc1ccc2c3c1O[C@H]1C[C@@H](O)C=C[C@@]31CCN(C)C2 [GALANTAMINE],Not Active,Not Active
Nc1ccn([C@@H]2O[C@H](CO)[C@@H](O)C2(F)F)c(=O)n1 [GEMCITABINE],Not Active,Not Active
CC(C)=CCC/C(C)=C/CO [GERANIOL],Not Active,Not Active

# Target: T1, Vasoactive intestinal polypeptide receptor 1 (Homo sapiens, UniProt P32241); also: in other assays of this panel Not Active means under 50% inhibition at 10 µM
# T1 sequence (P32241 whole entry): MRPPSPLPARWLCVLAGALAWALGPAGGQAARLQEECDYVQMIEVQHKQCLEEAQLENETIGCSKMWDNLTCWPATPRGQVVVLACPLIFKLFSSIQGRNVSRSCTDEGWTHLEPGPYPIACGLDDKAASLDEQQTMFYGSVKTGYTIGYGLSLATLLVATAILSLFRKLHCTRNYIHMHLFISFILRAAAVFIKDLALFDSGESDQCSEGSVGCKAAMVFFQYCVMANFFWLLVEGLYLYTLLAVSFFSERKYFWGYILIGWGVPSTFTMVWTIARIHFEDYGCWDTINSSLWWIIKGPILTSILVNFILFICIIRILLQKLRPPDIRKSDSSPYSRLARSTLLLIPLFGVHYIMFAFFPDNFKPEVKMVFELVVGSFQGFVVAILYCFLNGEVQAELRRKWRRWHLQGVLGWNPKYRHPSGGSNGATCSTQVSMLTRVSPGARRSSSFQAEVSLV
# Type: cell membranes, Membrane
# Conditions: ht-29
row,SMILES,IC50
1,COc1cc([C@@H]2c3cc4c(cc3[C@@H](O[C@@H]3O[C@@H]5CO[C@@H](C)O[C@H]5[C@H](O)[C@H]3O)[C@H]3COC(=O)[C@H]23)OCO4)cc(OC)c1O [ETOPOSIDE],Not Active
2,C=CCc1ccc(O)c(OC)c1 [EUGENOL],Not Active
3,CC(C(=O)O)c1cccc(Oc2ccccc2)c1 (stereo not given) [FENOPROFEN],Not Active
4,CC(C)(C)NC(=O)[C@H]1CC[C@H]2[C@@H]3CC[C@H]4NC(=O)C=C[C@]4(C)[C@H]3CC[C@]12C [FINASTERIDE],Not Active
5,COc1ccc2c3c1O[C@H]1C[C@@H](O)C=C[C@@]31CCN(C)C2 [GALANTAMINE],Not Active
6,Nc1ccn([C@@H]2O[C@H](CO)[C@@H](O)C2(F)F)c(=O)n1 [GEMCITABINE],Not Active
7,CC(C)=CCC/C(C)=C/CO [GERANIOL],Not Active

# Target: Sodium-dependent dopamine transporter (Homo sapiens, UniProt Q01959)
# Experiment: DRUGMATRIX: Dopamine Transporter radioligand binding (ligand: [125I] RTI-55)
# Type: cell membranes, CHO-K1, Membrane
# Conditions: cho-k1; Not Active = under 50% inhibition at 10 µM
# Sequence of Sodium-dependent dopamine transporter (Q01959 whole entry): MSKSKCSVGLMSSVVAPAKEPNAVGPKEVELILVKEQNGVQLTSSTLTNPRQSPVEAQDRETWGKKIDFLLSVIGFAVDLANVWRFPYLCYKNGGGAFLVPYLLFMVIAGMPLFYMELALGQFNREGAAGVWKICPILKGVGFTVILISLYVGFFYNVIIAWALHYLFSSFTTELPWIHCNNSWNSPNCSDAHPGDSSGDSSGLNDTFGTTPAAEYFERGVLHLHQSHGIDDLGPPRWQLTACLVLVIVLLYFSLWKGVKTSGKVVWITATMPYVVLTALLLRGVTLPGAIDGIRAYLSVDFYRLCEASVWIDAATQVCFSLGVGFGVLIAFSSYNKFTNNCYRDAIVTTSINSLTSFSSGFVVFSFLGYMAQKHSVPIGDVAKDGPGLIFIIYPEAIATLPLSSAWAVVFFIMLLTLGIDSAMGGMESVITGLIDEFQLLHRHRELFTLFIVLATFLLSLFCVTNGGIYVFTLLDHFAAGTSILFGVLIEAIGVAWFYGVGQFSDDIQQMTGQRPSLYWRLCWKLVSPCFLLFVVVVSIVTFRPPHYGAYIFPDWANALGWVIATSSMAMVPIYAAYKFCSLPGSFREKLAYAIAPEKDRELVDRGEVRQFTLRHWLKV
row,SMILES,IC50
1,COc1cc([C@@H]2c3cc4c(cc3[C@@H](O[C@@H]3O[C@@H]5CO[C@@H](C)O[C@H]5[C@H](O)[C@H]3O)[C@H]3COC(=O)[C@H]23)OCO4)cc(OC)c1O [ETOPOSIDE],Not Active
2,C=CCc1ccc(O)c(OC)c1 [EUGENOL],Not Active
3,CC(C(=O)O)c1cccc(Oc2ccccc2)c1 (stereo not given) [FENOPROFEN],Not Active
4,CC(C)(C)NC(=O)[C@H]1CC[C@H]2[C@@H]3CC[C@H]4NC(=O)C=C[C@]4(C)[C@H]3CC[C@]12C [FINASTERIDE],Not Active
5,COc1ccc2c3c1O[C@H]1C[C@@H](O)C=C[C@@]31CCN(C)C2 [GALANTAMINE],Not Active
6,Nc1ccn([C@@H]2O[C@H](CO)[C@@H](O)C2(F)F)c(=O)n1 [GEMCITABINE],Not Active
7,CC(C)=CCC/C(C)=C/CO [GERANIOL],Not Active

# Tested on: not listed separately
# Experiment: DRUGMATRIX: Glutamate, Kainate radioligand binding (ligand: [3H] Kainic acid)
# Type: cell membranes, Rattus norvegicus, Wistar, Brain, Membrane
# Conditions: Not Active = under 50% inhibition at 10 µM
SMILES,IC50,Ki
COc1cc([C@@H]2c3cc4c(cc3[C@@H](O[C@@H]3O[C@@H]5CO[C@@H](C)O[C@H]5[C@H](O)[C@H]3O)[C@H]3COC(=O)[C@H]23)OCO4)cc(OC)c1O [ETOPOSIDE],Not Active,Not Active
C=CCc1ccc(O)c(OC)c1 [EUGENOL],Not Active,Not Active
CC(C(=O)O)c1cccc(Oc2ccccc2)c1 (stereo not given) [FENOPROFEN],Not Active,Not Active
CC(C)(C)NC(=O)[C@H]1CC[C@H]2[C@@H]3CC[C@H]4NC(=O)C=C[C@]4(C)[C@H]3CC[C@]12C [FINASTERIDE],Not Active,Not Active
COc1ccc2c3c1O[C@H]1C[C@@H](O)C=C[C@@]31CCN(C)C2 [GALANTAMINE],Not Active,Not Active
Nc1ccn([C@@H]2O[C@H](CO)[C@@H](O)C2(F)F)c(=O)n1 [GEMCITABINE],Not Active,Not Active
CC(C)=CCC/C(C)=C/CO [GERANIOL],Not Active,Not Active

# Target: T2, 3-hydroxy-3-methylglutaryl-coenzyme A reductase (Homo sapiens, UniProt P04035);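 also: enzyme inhibition assay of HMG-CoA reductase using radiolabeled [14C]HMG-CoA as substrate; in other assays of this panel Not Active means under 50% inhibition at 10 µM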
# T2 sequence (P04035 whole entry): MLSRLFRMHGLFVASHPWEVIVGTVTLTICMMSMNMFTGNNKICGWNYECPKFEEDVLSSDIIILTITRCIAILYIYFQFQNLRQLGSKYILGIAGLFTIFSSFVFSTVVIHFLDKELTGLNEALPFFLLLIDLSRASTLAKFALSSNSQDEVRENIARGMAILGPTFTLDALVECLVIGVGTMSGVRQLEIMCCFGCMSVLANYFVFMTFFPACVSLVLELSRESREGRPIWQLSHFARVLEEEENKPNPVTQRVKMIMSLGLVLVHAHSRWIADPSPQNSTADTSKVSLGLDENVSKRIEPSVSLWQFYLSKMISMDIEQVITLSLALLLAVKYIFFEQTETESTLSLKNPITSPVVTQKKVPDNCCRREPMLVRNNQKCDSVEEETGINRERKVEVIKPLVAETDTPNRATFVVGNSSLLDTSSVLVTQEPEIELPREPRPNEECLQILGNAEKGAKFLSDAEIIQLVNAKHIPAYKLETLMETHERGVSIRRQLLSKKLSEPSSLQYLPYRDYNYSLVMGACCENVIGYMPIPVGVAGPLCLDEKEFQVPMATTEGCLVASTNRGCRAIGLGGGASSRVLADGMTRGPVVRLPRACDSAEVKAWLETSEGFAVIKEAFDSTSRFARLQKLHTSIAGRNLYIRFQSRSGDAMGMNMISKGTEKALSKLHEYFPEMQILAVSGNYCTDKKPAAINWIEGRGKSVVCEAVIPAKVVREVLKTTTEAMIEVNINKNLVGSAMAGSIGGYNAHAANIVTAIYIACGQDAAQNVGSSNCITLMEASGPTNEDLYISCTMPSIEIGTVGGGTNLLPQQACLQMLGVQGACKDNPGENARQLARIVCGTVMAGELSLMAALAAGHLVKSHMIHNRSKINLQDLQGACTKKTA
# Parameters: species or system Escherichia coli
# Conditions: not given
row,SMILES,IC50
1,COc1cc([C@@H]2c3cc4c(cc3[C@@H](O[C@@H]3O[C@@H]5CO[C@@H](C)O[C@H]5[C@H](O)[C@H]3O)[C@H]3COC(=O)[C@H]23)OCO4)cc(OC)c1O [ETOPOSIDE],Not Active
2,C=CCc1ccc(O)c(OC)c1 [EUGENOL],Not Active
3,CC(C(=O)O)c1cccc(Oc2ccccc2)c1 (stereo not given) [FENOPROFEN],Not Active
4,CC(C)(C)NC(=O)[C@H]1CC[C@H]2[C@@H]3CC[C@H]4NC(=O)C=C[C@]4(C)[C@H]3CC[C@]12C [FINASTERIDE],Not Active
5,COc1ccc2c3c1O[C@H]1C[C@@H](O)C=C[C@@]31CCN(C)C2 [GALANTAMINE],Not Active
6,Nc1ccn([C@@H]2O[C@H](CO)[C@@H](O)C2(F)F)c(=O)n1 [GEMCITABINE],Not Active
7,CC(C)=CCC/C(C)=C/CO [GERANIOL],Not Active

# Tested on: not listed separately
# Experiment: DRUGMATRIX: Potassium Channel [KATP] radioligand binding (ligand: [3H] Glyburide)
# Type: cell membranes, Membrane
# Conditions: hit-t15; Not Active = under 50% inhibition at 10 µM
SMILES,IC50,Ki
COc1cc([C@@H]2c3cc4c(cc3[C@@H](O[C@@H]3O[C@@H]5CO[C@@H](C)O[C@H]5[C@H](O)[C@H]3O)[C@H]3COC(=O)[C@H]23)OCO4)cc(OC)c1O [ETOPOSIDE],Not Active,Not Active
C=CCc1ccc(O)c(OC)c1 [EUGENOL],Not Active,Not Active
CC(C(=O)O)c1cccc(Oc2ccccc2)c1 (stereo not given) [FENOPROFEN],Not Active,Not Active
CC(C)(C)NC(=O)[C@H]1CC[C@H]2[C@@H]3CC[C@H]4NC(=O)C=C[C@]4(C)[C@H]3CC[C@]12C [FINASTERIDE],Not Active,Not Active
COc1ccc2c3c1O[C@H]1C[C@@H](O)C=C[C@@]31CCN(C)C2 [GALANTAMINE],Not Active,Not Active
Nc1ccn([C@@H]2O[C@H](CO)[C@@H](O)C2(F)F)c(=O)n1 [GEMCITABINE],Not Active,Not Active
CC(C)=CCC/C(C)=C/CO [GERANIOL],Not Active,Not Active

# Target: T3, Progesterone receptor (Bos taurus, UniProt Q690N0)
# T3 sequence (Q690N0 whole entry): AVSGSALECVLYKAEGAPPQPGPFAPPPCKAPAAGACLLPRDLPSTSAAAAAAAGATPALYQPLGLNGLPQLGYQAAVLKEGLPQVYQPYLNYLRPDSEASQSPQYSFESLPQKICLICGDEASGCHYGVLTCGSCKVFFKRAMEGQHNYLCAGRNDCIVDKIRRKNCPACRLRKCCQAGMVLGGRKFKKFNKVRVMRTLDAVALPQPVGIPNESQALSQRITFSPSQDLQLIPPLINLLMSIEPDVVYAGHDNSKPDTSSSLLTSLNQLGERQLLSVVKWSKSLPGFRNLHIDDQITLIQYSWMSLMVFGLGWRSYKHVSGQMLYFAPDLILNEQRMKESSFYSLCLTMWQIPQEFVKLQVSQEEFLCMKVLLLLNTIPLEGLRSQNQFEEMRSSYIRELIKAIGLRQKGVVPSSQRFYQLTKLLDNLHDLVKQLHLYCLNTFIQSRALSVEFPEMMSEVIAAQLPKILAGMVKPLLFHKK
# Experiment: DRUGMATRIX: Progesterone radioligand binding (ligand: [3H] R-5020)
# Type: tissue-based, Uterus
# Conditions: Not Active = under 50% inhibition at 10 µM
row,SMILES,IC50
1,COc1cc([C@@H]2c3cc4c(cc3[C@@H](O[C@@H]3O[C@@H]5CO[C@@H](C)O[C@H]5[C@H](O)[C@H]3O)[C@H]3COC(=O)[C@H]23)OCO4)cc(OC)c1O [ETOPOSIDE],Not Active
2,C=CCc1ccc(O)c(OC)c1 [EUGENOL],Not Active
3,CC(C(=O)O)c1cccc(Oc2ccccc2)c1 (stereo not given) [FENOPROFEN],Not Active
4,CC(C)(C)NC(=O)[C@H]1CC[C@H]2[C@@H]3CC[C@H]4NC(=O)C=C[C@]4(C)[C@H]3CC[C@]12C [FINASTERIDE],Not Active
5,COc1ccc2c3c1O[C@H]1C[C@@H](O)C=C[C@@]31CCN(C)C2 [GALANTAMINE],Not Active
6,Nc1ccn([C@@H]2O[C@H](CO)[C@@H](O)C2(F)F)c(=O)n1 [GEMCITABINE],Not Active
7,CC(C)=CCC/C(C)=C/CO [GERANIOL],Not Active
